From the supplement of paper PMC10307832

Legend:
Test in all cases: relative viability (nuclei count vs DMSO), 5 days (fraction); higher = more cells survive
Cediranib + Decitabine = compound: COc1cc2c(Oc3ccc4[nH]c(C)cc4c3F)ncnc2cc1OCCCN1CCCC1 [Cediranib] + Nc1ncn([C@H]2C[C@H](O)[C@@H](CO)O2)c(=O)n1 [Decitabine] (partner 2 µM)
In short: (§1)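 Medians of duplicate plates are given as relative viability. That measure is the nuclei count in treated wells divided by the count in vehicle wells. Counts were taken on 4× images of lung cancer cell lines in 1536-well plates, 5 days after pin-tool dosing the day after seeding with one drug alone or a fixed anchor-drug dose plus five library-drug doses (not always all listed) in √10 steps.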

Cediranib + Alpelisib = compound: COc1cc2c(Oc3ccc4[nH]c(C)cc4c3F)ncnc2cc1OCCCN1CCCC1 [Cediranib] + Cc1nc(NC(=O)N2CCC[C@H]2C(N)=O)sc1-c1ccnc(C(C)(C)C(F)(F)F)c1 [Alpelisib] (partner 2 µM)
In short: as §1

Decitabine + Vorinostat = compound: Nc1ncn([C@H]2C[C@H](O)[C@@H](CO)O2)c(=O)n1 [Decitabine] + O=C(CCCCCCC(=O)Nc1ccccc1)NO [Vorinostat] (partner 1 µM)
In short: as §1

Decitabine + Trametinib = compound: Nc1ncn([C@H]2C[C@H](O)[C@@H](CO)O2)c(=O)n1 [Decitabine] + CC(=O)Nc1cccc(-n2c(=O)n(C3CC3)c(=O)c3c(Nc4ccc(I)cc4F)n(C)c(=O)c(C)c32)c1 [Trametinib] (partner 0.02 µM)
In short: as §1

UMC-11 gave a relative viability (Cediranib + Decitabine; first compound 0.04 µM) of 0.617, a relative viability (Cediranib + Decitabine; first compound 0.1265 µM) of 0.528 and a relative viability (Cediranib + Decitabine; first compound 0.4 µM) of 0.557. For the same cell line, the relative viability (Cediranib + Decitabine; first compound 1.265 µM) was 0.555, the relative viability (Cediranib + Decitabine; first compound 4 µM) was 0.633 and the relative viability (Cediranib + Alpelisib; first compound 0.04 µM) was 1.06. The relative viability (Cediranib + Alpelisib; first compound 0.1265 µM) was 0.879, the relative viability (Cediranib + Alpelisib; first compound 0.4 µM) was 0.934 and the relative viability (Cediranib + Alpelisib; first compound 1.265 µM) was 0.984. The relative viability (Cediranib + Alpelisib; first compound 4 µM) was 0.922, the relative viability (Decitabine + Vorinostat; first compound 0.04 µM) was 0.269 and the relative viability (Decitabine + Vorinostat; first compound 0.1265 µM) was 0.263. The relative viability (Decitabine + Vorinostat; first compound 0.4 µM) was 0.236, the relative viability (Decitabine + Vorinostat; first compound 1.265 µM) was 0.19 and the relative viability (Decitabine + Vorinostat; first compound 4 µM) was 0.193. It also gave a relative viability (Decitabine + Trametinib; first compound 0.04 µM) of 0.697, a relative viability (Decitabine + Trametinib; first compound 0.1265 µM) of 0.609 and a relative viability (Decitabine + Trametinib; first compound 0.4 µM) of 0.4. For the same cell line, the relative viability (Decitabine + Trametinib; first compound 1.265 µM) was 0.331 and the relative viability (Decitabine + Trametinib; first compound 4 µM) was 0.367.
